These results are taken from paper PMC2701622 (Journal of immunology (Baltimore, Md. : 1950), 2009).

pIC50: −log10 of the molar value. No end group written: not given here.

In the test the target is HLA-B*2705 (Homo sapiens, UniProt P01889, D138H/D201E/E176V/E204Q/G107R/H137Y/K202T/N104T/N87E/Q56L/Q94K/R106L/R155S/R180L/S101D/S121N/S48T/Y140D/Y33H/Y91C). Nature of the test: biochemical. Format: binding.
ARAALQELL showed a pIC50 of 6.86.

Compound YRRWIQLGL [Gag263–271YL9] had a pIC50 of 8.57.

Turning to SRLWPKIQGL, the pIC50 is 7.77.

Compound DRLALLANL [reference compound] gave a pIC50 of 6.74.

Consider RRSPFLQVF, for which the pIC50 was 7.85.

The compound SRHHAFCFR [reference compound] had a pIC50 of 7.38.

Compound SRLEILNVL showed a pIC50 of 7.10.

With RRPPLLPLLL, the pIC50 is 7.00.

RRDNRRGL [Vif172–179RL8]: the pIC50 was 6.76.

Regarding NRFSVAYML [reference compound], the pIC50 is 8.01.

As to “KRLAETLAL [KRLAETLAL, reference compound]”, the pIC50 was 6.78.

NRAKQVIKL [reference compound] gave a pIC50 of 6.49.

Compound TRYPTILQL showed a pIC50 of 7.01.

Turning to SRYDPSISF, the pIC50 is 6.60.

On to RRLTARGLL [Nef246–254RL9], for which the pIC50 was 8.00.

As for ARKLLLDNL [reference compound], the pIC50 is 7.13.

In the case of SRQFGFIVL, the pIC50 is 6.89.

Compound MRDHTITLL [reference compound] gave a pIC50 of 7.28.

The compound IRILQRALF [Vpr62–70IF9] showed a pIC50 of 7.85.

RRSRPSGDL [Nef8–16RL9] gave a pIC50 of 6.45.

Compound `CC(C)C[C@H](NC(=O)[C@H](CCCNC(=N)N)NC(=O)[C@H](CC(C)C)NC(=O)[C@H](C)NC(=O)[C@H](CCC(=O)O)NC(=O)[C@@H]1CCCN1C(=O)[C@H](Cc1ccccc1)NC(=O)[C@H](CCCNC(=N)N)NC(=O)[C@@H](N)CO)C(=O)O` [reference compound] gave a pIC50 of 7.92.

As for ARLFGIRAK [reference compound], the pIC50 is 6.88.

With SRTPYHVNL, the pIC50 was 7.66.

RRRWQQLL [Rev44–51RL8] showed a pIC50 of 7.92.

RRHRILDIYL [Nef137–146RL10] gave a pIC50 of 8.74.

The compound RRSKEITVR [reference compound] showed a pIC50 of 8.26.

The compound RRYNIIPVL had a negative-log IC50 (pIC50) of 8.10.

For the compound RRISGVDRY [reference compound], the pIC50 was 7.68.

As to `CC(C)C[C@H](NC(=O)[C@H](CCC(=O)O)NC(=O)[C@@H](NC(=O)[C@H](CO)NC(=O)[C@H](CCCCN)NC(=O)[C@H](CCC(N)=O)NC(=O)[C@H](Cc1ccc(O)cc1)NC(=O)[C@H](CCCNC(=N)N)NC(=O)[C@@H](N)CCCNC(=N)N)[C@@H](C)O)C(=O)O` [reference compound], the pIC50 was 8.21.

For the compound EREQTLNQL [reference compound], the pIC50 was 5.57.

KRLRLIHLL [Rev12–20KL9] had a pIC50 of 8.96.

Compound RRIRQGLEL [Env868–876RL9] showed a pIC50 of 7.89.

For RRAIRGEQL [Vif123–131RL9], the pIC50 is 7.55.

LRQGYRPVF [Env717–725LF9] showed a pIC50 of 7.28.

Consider KRGVFVLGF [Env524–532KF9], for which the pIC50 is 7.89.

Compound KRQQELLRL [Env573–581KL9] had a pIC50 of 7.16.

The compound RRQDILDLWI [reference compound] gave a pIC50 of 7.00.

For orientation: pIC50 means the negative decadic logarithm of the IC50, by convention in mol/L. Higher therefore signals a low IC50.
